Measured values as given in patent US20220331303A1, “USE OF AN OREXIN 2 RECEPTOR AGONIST FOR THE TREATMENT OF EXCESSIVE SLEEPINESS” (Takeda Pharmaceutical Company Limited, priority 2019, published 2022).
Where two headings read alike, the source gives them in different places.

Assays:
Type in all cases: in vivo, human
[1] = Multiple-dose plasma PK of IV Compound A in patients with NT2; details: for Cmax / concentration at 1 h / concentration at 2 h / concentration at 4 h / concentration at 6 h / concentration at 9 h / Tmax / AUC(0-inf) / AUC(0-t) / AUC / clearance / Vd: human, plasma, intravenous; for concentration at 1 h: 1 Hour Postdose at Day 1; for concentration at 2 h: 2 Hours Postdose at Day 1; for concentration at 4 h: 4 Hours Postdose at Day 1; for concentration at 6 h: 6 Hours Postdose at Day 1; for clearance: read-out: CL Mean (converted)
Description: (§1) The purpose of the study was to evaluate the safety, tolerability, pharmacokinetics and pharmacodynamics of Compound A after multiple days of IV administration in patients with NT2. NT2 patients were evaluated in Cohort C1 and C2 (Table 30). Compound A or placebo were administered via IV infusion over 9 hours once daily for 7 days. A total of 14 patients with NT2 were treated with Compound A or placebo (5, 4, and 5 subjects in the placebo, Compound A 44 mg, and Compound A 112 mg groups, respectively). In this part, potential efficacy of Compound A was evaluated with MWT, ESS, KSS, night-time PSG (NPSG), and PGI-C as an exploratory PD assessment.
Blood samples used for PK analysis of Compound A was collected according to Table 31. See also FIG. 10 for whole schedules of study procedures.

[2] = tested on: subjects with obstructive sleep apnea; assay: KSS in subjects with OSA experiencing EDS despite CPAP
Description: On Day 1 of Treatment Period 1, all eligible subjects were randomized and received the first dose of study drug. Compound A or placebo was administered as a single 9-hour IV infusion commencing at approximately 08:00. On each dosing day (Study Days 1, 3, and 5), 40-minute MWT sessions were performed at 2, 4, 6, and 8 hours after the start of the infusion. There was a minimum 24-hour washout interval between the end of the infusion and the commencement of treatment in subsequent treatment periods to allow for complete elimination of the preceding treatment effect. The KSS and PVT were collected per the Schedule of Study Procedures. Blood samples for determination of Compound A plasma concentrations were collected predose and at specified time points postdose, Safety assessments were recorded. During the study, AEs were recorded, clinical laboratory tests, vital signs, and safety ECGs were obtained. Study Days 2, 4, and 6 were washout days. Subjects were discharged from the unit following completion of study exit procedures in the afternoon of Study Day 6 (Day 2 of Treatment Period 3). Subjects were contacted by telephone approximately 7 days (±2 days) following unit discharge for a safety check.

patients with NT2 = assay: Safety/tolerability of multiple IV doses in patients with NT2
Description: as §1

[3] = multiple IV administrations of up to 112 mg, NT2 patients

For COC(=O)N1CCC[C@H](NS(C)(=O)=O)[C@@H]1CO[C@H]1CC[C@@H](c2ccccc2)CC1 [Compound A, methyl (2R,3S)-3-((methylsulfonyl)amino)-2-(((cis-4-phenylcyclohexyl)oxy)methyl)piperidine-1-carboxylate], the “Plasma Concentration Mean” value ([1]; Cmpd A 44 mg, 0.17 Hour after End of Infusion at Day 1) was 45.48 ng/mL, the “Plasma Concentration Mean” value ([1]; Cmpd A 44 mg, 0.5 Hour after End of Infusion at Day 1) was 33.98 ng/mL and the “Plasma Concentration Mean” value ([1]; Cmpd A 44 mg, 2 Hours after End of Infusion at Day 1) was 16.33 ng/mL. For the same compound, the “Plasma Concentration Mean” value ([1]; Cmpd A 44 mg, 6 Hours after End of Infusion at Day 1) was 5.020 ng/mL, the “Plasma Concentration Mean” value ([1]; Cmpd A 44 mg, 9 Hours Postdose at Day 5) was 73.15 ng/mL and the “Plasma Concentration Mean” value ([1]; Cmpd A 44 mg, 9 Hours Postdose at Day 6) was 65.80 ng/mL. The “Plasma Concentration Mean” value ([1]; Cmpd A 44 mg, 10 Hours after End of Infusion at Day 1) was 2.515 ng/mL, the “Plasma Concentration Mean” value ([1]; Cmpd A 44 mg, 14 Hours after End of Infusion at Day 1) was 0.7016 ng/mL and the “AUCtau D Mean” value ([1]; Cmpd A 44 mg, Day 1) was 14.83 ng·h/mL/mg. The “Cmax D Mean” value ([1]; Cmpd A 44 mg, Day 1) was 1.685 ng/mL/mg, the “t½z Mean” value ([1]; Cmpd A 44 mg, Day 1) was 2.708 h and the “AUCtau D Mean” value ([1]; Cmpd A 44 mg, Day 7) was 15.00 ng·h/mL/mg. For the same compound, the “Cmax D Mean” value ([1]; Cmpd A 44 mg, Day 7) was 1.745 ng/mL/mg, the “PTR Mean” value ([1]; Cmpd A 44 mg, Day 7) was 202.0 and the “UCtau Geo Mean” value ([1]; Cmpd A 44 mg, Day 7) was 657.1 ng·h/mL. For the same compound, the “UCtau Mean” value ([1]; Cmpd A 44 mg, Day 7) was 660.0 ng·h/mL, the “t½z Mean” value ([1]; Cmpd A 44 mg, Day 7) was 2.643 h and the “Plasma Concentration Mean” value ([1]; Cmpd A 44 mg, Predose at Day 1) was 0.000 ng/mL. The “Plasma Concentration Mean” value ([1]; Cmpd A 44 mg, Predose at Day 5) was 0.9273 ng/mL, the “Plasma Concentration Mean” value ([1]; Cmpd A 44 mg, Predose at Day 6) was 0.7163 ng/mL and the “Plasma Concentration Mean” value ([1]; Cmpd A 44 mg, Predose at Day 7) was 0.5635 ng/mL. For the same compound, the “Plasma Concentration Mean” value ([1]; Cmpd A 112 mg, 0.17 Hour after End of Infusion at Day 1) was 81.03 ng/mL, the “Plasma Concentration Mean” value ([1]; Cmpd A 112 mg, 0.5 Hour after End of Infusion at Day 1) was 75.26 ng/mL and the “Plasma Concentration Mean” value ([1]; Cmpd A 112 mg, 2 Hours after End of Infusion at Day 1) was 32.46 ng/mL. For the same compound, the “Plasma Concentration Mean” value ([1]; Cmpd A 112 mg, 6 Hours after End of Infusion at Day 1) was 12.03 ng/mL, the “Plasma Concentration Mean” value ([1]; Cmpd A 112 mg, 10 Hours after End of Infusion at Day 1) was 5.610 ng/mL and the “AUCtau D Mean” value ([1]; Cmpd A 112 mg, Day 1) was 13.52 ng·h/mL/mg. For the same compound, the “Cmax D Mean” value ([1]; Cmpd A 112 mg, Day 1) was 1.540 ng/mL/mg, the “t½z Mean” value ([1]; Cmpd A 112 mg, Day 1) was 2.800 h and the “AUCtau D Mean” value ([1]; Cmpd A 112 mg, Day 7) was 13.68 ng·h/mL/mg. The “Cmax D Mean” value ([1]; Cmpd A 112 mg, Day 7) was 1.550 ng/mL/mg, the “PTR Mean” value ([1]; Cmpd A 112 mg, Day 7) was 201.1 and the “UCtau Geo Mean” value ([1]; Cmpd A 112 mg, Day 7) was 1519 ng·h/mL. The “UCtau Mean” value ([1]; Cmpd A 112 mg, Day 7) was 1534 ng·h/mL, the “t½z Mean” value ([1]; Cmpd A 112 mg, Day 7) was 3.136 h and the “Plasma Concentration Mean” value ([1]; Cmpd A 112 mg, Predose at Day 1) was 0.000 ng/mL. For the same compound, the Drug accumulation ([1]; QD 9-hour IV infusion daily for 7 days) was “no drug accumulation was observed”, the “Dose proportionality of mean plasma systemic exposures” value ([1]; daily 9-hour IV infusions, 44 and 112 mg) was “generally increased in a dose proportional manner” and the Cmax ([1]; 44 mg, Cmax Geo Mean, Cmpd A 44 mg, Day 7) was 76.4 ng/mL. The concentration at 1 h ([1]; 44 mg, Cmpd A 44 mg) was 47.4 ng/mL, the concentration at 2 h ([1]; 44 mg, Cmpd A 44 mg) was 59 ng/mL and the concentration at 4 h ([1]; 44 mg, Cmpd A 44 mg) was 74.1 ng/mL. The concentration at 6 h ([1]; 44 mg, Cmpd A 44 mg) was 50 ng/mL, the concentration at 9 h ([1]; 44 mg, Cmpd A 44 mg, 9 Hours Postdose at Day 1, read-out: Plasma Concentration Mean) was 69 ng/mL and the Tmax ([1]; 44 mg, Cmpd A 44 mg, Day 1) was 3.88 h. For the same compound, the AUC(0-inf) ([1]; 44 mg, Cmpd A 44 mg, Day 1, read-out: AUCinf Geo mean) was 651 ng·h/mL, the AUC(0-inf) ([1]; 44 mg, Cmpd A 44 mg, Day 1, read-out: AUCinf Mean) was 655 ng·h/mL and the AUC(0-t) ([1]; 44 mg, Cmpd A 44 mg, Day 1, read-out: AUClast Geo mean) was 648 ng·h/mL. For the same compound, the AUC(0-t) ([1]; 44 mg, Cmpd A 44 mg, Day 1, read-out: AUClast Mean) was 652 ng·h/mL, the AUC ([1]; 44 mg, Cmpd A 44 mg, Day 1, read-out: AUCtau Geo mean) was 648 ng·h/mL and the AUC ([1]; 44 mg, Cmpd A 44 mg, Day 1, read-out: AUCtau Mean) was 652 ng·h/mL. For the same compound, the clearance ([1]; 44 mg, Cmpd A 44 mg, Day 1) was 1130 mL/min, the concentration at 9 h ([1]; 44 mg, Cmpd A 44 mg, Day 1, read-out: Ceoi Geo mean) was 68.7 ng/mL and the concentration at 9 h ([1]; 44 mg, Cmpd A 44 mg, Day 1, read-out: Ceoi Mean) was 69 ng/mL. It also gave a Cmax ([1]; 44 mg, Cmpd A 44 mg, Day 1, read-out: Cmax Geo mean) of 73.9 ng/mL, a Cmax ([1]; 44 mg, Cmpd A 44 mg, Day 1, read-out: Cmax Mean) of 74.1 ng/mL and a Vd ([1]; 44 mg, Cmpd A 44 mg, Day 1, read-out: Vss Mean) of 122 L. The Vd ([1]; 44 mg, Cmpd A 44 mg, Day 1, read-out: Vz Mean) was 288 L, the Tmax ([1]; 44 mg, Cmpd A 44 mg, Day 7) was 3.91 h and the AUC(0-t) ([1]; 44 mg, Cmpd A 44 mg, Day 7, read-out: AUClast Geo Mean) was 657 ng·h/mL. The AUC(0-t) ([1]; 44 mg, Cmpd A 44 mg, Day 7, read-out: AUClast Mean) was 660 ng·h/mL, the clearance ([1]; 44 mg, Cmpd A 44 mg, Day 7) was 1120 mL/min and the Cmax ([1]; 44 mg, Cmpd A 44 mg, Day 7, read-out: Cmax Mean) was 76.7 ng/mL. It also gave a Vd ([1]; 44 mg, Cmpd A 44 mg, Day 7, read-out: Vss Mean) of 114 L, a Vd ([1]; 44 mg, Cmpd A 44 mg, Day 7, read-out: Vz Mean) of 258 L and a Cmax ([1]; 112 mg, Cmax Geo Mean, Cmpd A 112 mg, Day 7) of 172 ng/mL. The concentration at 1 h ([1]; 112 mg, Cmpd A 112 mg) was 123 ng/mL, the concentration at 2 h ([1]; 112 mg, Cmpd A 112 mg) was 142 ng/mL and the concentration at 4 h ([1]; 112 mg, Cmpd A 112 mg) was 170 ng/mL. The concentration at 6 h ([1]; 112 mg, Cmpd A 112 mg) was 138 ng/mL, the concentration at 9 h ([1]; 112 mg, Cmpd A 112 mg, 9 Hours Postdose at Day 1, read-out: Plasma Concentration Mean) was 150 ng/mL and the Tmax ([1]; 112 mg, Cmpd A 112 mg, Day 1) was 4.93 h. For the same compound, the AUC(0-inf) ([1]; 112 mg, Cmpd A 112 mg, Day 1, read-out: AUCinf Geo mean) was 1500 ng·h/mL, the AUC(0-inf) ([1]; 112 mg, Cmpd A 112 mg, Day 1, read-out: AUCinf Mean) was 1520 ng·h/mL and the AUC(0-t) ([1]; 112 mg, Cmpd A 112 mg, Day 1, read-out: AUClast Geo mean) was 1500 ng·h/mL. It also gave an AUC(0-t) ([1]; 112 mg, Cmpd A 112 mg, Day 1, read-out: AUClast Mean) of 1520 ng·h/mL, an AUC ([1]; 112 mg, Cmpd A 112 mg, Day 1, read-out: AUCtau Geo mean) of 1500 ng·h/mL and an AUC ([1]; 112 mg, Cmpd A 112 mg, Day 1, read-out: AUCtau Mean) of 1520 ng·h/mL. It also gave a clearance ([1]; 112 mg, Cmpd A 112 mg, Day 1) of 1260 mL/min, a concentration at 9 h ([1]; 112 mg, Cmpd A 112 mg, Day 1, read-out: Ceoi Geo mean) of 156 ng/mL and a concentration at 9 h ([1]; 112 mg, Cmpd A 112 mg, Day 1, read-out: Ceoi Mean) of 158 ng/mL. It also gave a Cmax ([1]; 112 mg, Cmpd A 112 mg, Day 1, read-out: Cmax Geo mean) of 171 ng/mL, a Cmax ([1]; 112 mg, Cmpd A 112 mg, Day 1, read-out: Cmax Mean) of 172 ng/mL and a Vd ([1]; 112 mg, Cmpd A 112 mg, Day 1, read-out: Vss Mean) of 121 L. The Vd ([1]; 112 mg, Cmpd A 112 mg, Day 1, read-out: Vz Mean) was 299 L, the AUC(0-t) ([1]; 112 mg, Cmpd A 112 mg, Day 7, read-out: AUClast Geo Mean) was 1520 ng·h/mL and the AUC(0-t) ([1]; 112 mg, Cmpd A 112 mg, Day 7, read-out: AUClast Mean) was 1530 ng·h/mL. It also gave a clearance ([1]; 112 mg, Cmpd A 112 mg, Day 7) of 1240 mL/min, a Cmax ([1]; 112 mg, Cmpd A 112 mg, Day 7, read-out: Cmax Mean) of 173 ng/mL and a Vd ([1]; 112 mg, Cmpd A 112 mg, Day 7, read-out: Vss Mean) of 124 L. For the same compound, the Vd ([1]; 112 mg, Cmpd A 112 mg, Day 7, read-out: Vz Mean) was 338 L, the “Mean placebo-adjusted decrease in KSS” value ([2]; Compound A 44 mg) was −1.6 and the “Mean placebo-adjusted decrease in KSS” value ([2]; Compound A 112 mg) was −2.4. The “Number of TEAE related to BP (blood pressure increased)” value (patients with NT2; Compound A 112 mg group, mild intensity) was 1, the “SAE / TEAE leading to study drug discontinuation” value (patients with NT2; [3]) was “no SAE, and no TEAE leading to study drug discontinuation” and the Safety and tolerability (patients with NT2; [3]) was “safe and well tolerated”.
